According to patent publication US20030031715A1, “Pharmaceutical applications of hydrotropic agents, polymers thereof, and hydrogels thereof” (priority 2000, published 2003):
Converted amounts (≈) assume the structure as drawn.

Columns and labels:
[1] = Paclitaxel aqueous solubility in the presence of hydrotropic agents, polymers and hydrogels (HPLC)
Protocol: The mobile phase consists of acetonitrile-water (45:55 v/v) with a flow rate of 1.0 ml/min.
To the filtered solution is added ethylene glycol dimethacrylate, a crosslinker at a concentration of 6 mol % to the monomer.

[2] = physchem; conditions: water
[3] = Water solubility (maximum solubility) of hydrotropic agents; conditions: for solubility: water
[4] = tested on: A-498; assay: Antitumor cytotoxicity GI50, MTT bioassay; assay type: cell-based; conditions: Homo sapiens, A498, A-498 (kidney)
Source text: (§1) Purdue Cancer Center Cell Culture Laboratory has provided bioassay service for measuring antitumor cytotoxicity for many years. […] The standard bioassay is done in 96-well microtiter plates using MTT [3-(4,5-dimethylthiazole-2-yl)-2,5-diphenytetrazolium bromide]. MTT is cleaved in the mitochondria of live cells to produce a dark blue formazan product. […] Adriamycin is used as an internal reference antitumor agent for the quality control of the standardized cytotoxicity assay.
(§2) The results of cytotoxicity evaluations are compared with those of animal experiments to examine what formulations were optimal for each experiment.

[5] = tested on: A-549; assay: Antitumor cytotoxicity GI50, MTT bioassay; assay type: cell-based; conditions: Homo sapiens, A549, A-549 (lung)
Source text: as §1, §2

[6] = tested on: HT-29; assay: Antitumor cytotoxicity GI50, MTT bioassay; assay type: cell-based; conditions: Homo sapiens, HT-29 (colon)
Source text: as §1, §2

[7] = tested on: MCF-7; assay: Antitumor cytotoxicity GI50, MTT bioassay; assay type: cell-based; conditions: Homo sapiens, MCF7, MCF-7 (breast)
Source text: as §1, §2

[8] = tested on: PC-3; assay: Antitumor cytotoxicity GI50, MTT bioassay; assay type: cell-based; conditions: Homo sapiens, PC-3 (prostate)
Source text: as §1, §2

[9] = tested on: PaCa-2; assay: Antitumor cytotoxicity GI50, MTT bioassay; assay type: cell-based; conditions: Homo sapiens, PaCa-2 (pancreas)
Source text: as §1, §2

[10] = physchem
Source text: (§3) These compounds were also used to examine the solubility increase of other poorly soluble drugs. […] Their chemical structures are shown below: [drawing 48]

[11] = log (CO/CW), octanol and water; cited from earlier work
[12] = at 37° C.; cited from earlier work
[13] = Progesterone aqueous solubility in hydrotropic solutions; assay type: physicochemical
Source text: as §3

For `CCN(CC)C(=O)c1cccnc1O` [2-hydroxy-N,N-diethylnicotinamide], the “PTX Solubility” value [1] was 0 µg/mL and the solubility [2] was 200 mM (≈ 38.8 mg/mL).

With `NC(=O)c1ccncc1C(N)=O` [3,4-pyridinedicarboxamide] the “PTX Solubility” value [1] was 0 µg/mL and the solubility [2] was 25 mM (≈ 4.13 mg/mL).

`CCN(CC)C(=O)c1ccc(=O)[nH]c1` [6-Hydroxy-N,N-diethylnicotinamide] showed a solubility [3] of 2000 mM (≈ 388 mg/mL).

`COc1cccc2c1C(=O)c1c(O)c3c(c(O)c1C2=O)C[C@@](O)(C(=O)CO)C[C@@H]3O[C@H]1C[C@H](N)[C@H](O)[C@H](C)O1` [Adriamycin] gave a GI50 [4] of 0.005 µg/mL (≈ 0.0092 µM), a GI50 [5] of 0.005 µg/mL (≈ 0.0092 µM) and a GI50 [6] of 0.03 µg/mL (≈ 0.0552 µM). For the same molecule, the GI50 [7] was 0.2 µg/mL (≈ 0.368 µM), the GI50 [8] was 0.02 µg/mL (≈ 0.0368 µM) and the GI50 [9] was 0.005 µg/mL (≈ 0.0092 µM).

For `COC1=CC(=O)C[C@@H](C)[C@]12Oc1c(Cl)c(OC)cc(OC)c1C2=O` [Griseofulvin], the Griseofulvin aqueous solubility [10] is given as 7 µg/mL, the solubility ([10]; 37 °C, water) is given as 7 µg/mL (≈ 19.8 µM) and the “Partition Coefficient” value [11] is given as 2.07. For the same molecule, the “Water Solubility (μM)” value [12] was 19.8 µM.

With `CC(=O)[C@H]1CC[C@H]2[C@@H]3CCC4=CC(=O)CC[C@]4(C)[C@H]3CC[C@]12C` [Progesterone] the “Progesterone solubility in hydrotropic solutions” value ([13]; 0.0 M, 37° C., mean ±SD, n=3) was 0.0012 ± 0.0000, the solubility ([13]; 37 °C, 0 M, control in pure water, read-out: Progesterone aqueous solubility) was 1.2 µg/mL (≈ 3.82 µM) and the solubility ([13]; water without hydrotropic agent, water, 0.0 M, 37° C., mean ±SD, n=3, read-out: Progesterone solubility in hydrotropic solutions) was 1.2 µg/mL (≈ 3.82 µM). For the same molecule, the “Partition Coefficient” value [11] was 3.84 and the “Water Solubility (μM)” value [12] was 3.8 µM.

`Cc1ccc(S(=O)(=O)[O-])cc1.[Na+]` [Sodium p-toluenesulfonate] showed a solubility [3] of 2500 mM.

`Cc1ccc(S(=O)(=O)[O-])c(C)c1.[Na+]` [Sodium xylenesulfonate] gave a solubility [3] of 2500 mM.

With `O=C1NS(=O)(=O)c2ccccc21` [o-benzoic acid sulfimide] the “maximum solubility (water solubility) of the hydrotropic agent” value ([3]; in water) was 10 mM.
